Measured values reported in patent publication US11634426B2, “Selective estrogen receptor degraders” (Eli Lilly and Company, priority 2018, dated 2023).

Biological target: ERα receptor (Homo sapiens (Human), UniProt P03372)
Assay: PRα induction assay in MCF7 cells (ERα agonism)
Assay type: cell-based
Method: The purpose of the following PRα induction assay is to determine whether a test compound has agonistic activity against ERα receptor (an agonist would be expected to activate the receptor).
Culture MCF7 (purchased from ATCC HTB-22) in DMEM media supplemented with 10% FBS, 0.01 mg/mL human insulin 1 and 1% penicillin/streptomycin antibiotics and plate the cells (prior to becoming 70% confluent) in 384-well flat-bottom plates at a density of 4,000 cells per well in 20 μL volume in DMEM phenol red free media containing 10% FBS (charcoal stripped). Incubate the cells overnight in a cell culture incubator (5% CO2, 95% relative humidity at 37° C.) and allow the cells to attach to the plate. The following day, dose the cells with test compound. Use an Echo 555 acoustic dispenser to prepare compound serial dilutions (1:3) in a range from 6 μM to 0.0003 μM. Dose the cells with the addition of the test compound (5 μL) from the serial dilution plate to the cell plate producing a final DMSO concentration of 0.2% with a final concentration of the test compound dose range between 2 and 0.0001 μM. For the maximum point use media containing 0.2% of DMSO and for the minimum point, use fulvestrant diluted at […] final concentrations in the growth media containing 0.2% DMSO. After dosing with the test compound, incubate the cell plates at 37° C. and 5% CO2 for 24 hours. Fix the cells by adding 14% para-formaldehyde (10 μL) for 30 minutes at room temperature. Wash cells once with PBS (20 μL) and incubate with PBS (20 μL) containing 0.5% (v/v) TWEEN® 20 for 1 hour. Wash cells twice with PBS (20 μL) containing 0.05% TWEEN® 20 and block with 3% BSA in PBS containing 0.05% TWEEN® 20 and 0.1% TRITON™ X-100 (20 μL/well) for 1 hour at room temperature. […]
The following day, wash cells with PBS 0.05% TWEEN® 20 (2×20 μL) and incubate with secondary antibody (20 μL/well) (1:1000 dilution, Goat anti-rabbit IgM ALEXA FLUOR™ 488) in PBS 1% BSA for 105 minutes at room temperature. […] Scan plates with ACUMEN EXPLORER™ [Laser-scanning fluorescence microplate cytometer manufactured by TTP LABTECH LTD] to measure PRα. […]

ERα receptor, sequence (P03372 whole entry): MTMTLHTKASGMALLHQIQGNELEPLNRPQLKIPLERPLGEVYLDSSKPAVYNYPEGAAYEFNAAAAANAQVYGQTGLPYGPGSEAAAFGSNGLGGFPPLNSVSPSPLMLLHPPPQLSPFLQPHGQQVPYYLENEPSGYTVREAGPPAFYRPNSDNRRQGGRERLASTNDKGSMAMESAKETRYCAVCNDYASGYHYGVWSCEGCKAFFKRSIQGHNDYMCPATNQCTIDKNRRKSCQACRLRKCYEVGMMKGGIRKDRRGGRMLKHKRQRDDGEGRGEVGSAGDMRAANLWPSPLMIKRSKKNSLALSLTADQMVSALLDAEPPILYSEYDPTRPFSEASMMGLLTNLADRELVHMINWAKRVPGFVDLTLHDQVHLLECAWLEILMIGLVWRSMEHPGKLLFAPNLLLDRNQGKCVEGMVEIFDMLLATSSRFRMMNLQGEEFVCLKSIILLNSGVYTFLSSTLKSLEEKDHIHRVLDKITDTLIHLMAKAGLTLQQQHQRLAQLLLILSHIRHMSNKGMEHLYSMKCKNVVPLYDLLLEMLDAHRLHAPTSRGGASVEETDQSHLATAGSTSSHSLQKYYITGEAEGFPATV

Agonistic activity (PRα induction), no significant agonistic activity:
Oc1ccc2c3c(cnc2c1)-c1ccc(C(F)(F)F)cc1OC3c1ccc(OCCN2CC(CF)C2)cc1 (single isomer, unassigned; isomer 2) [Example 1B, 5-(4-{2-[3-(Fluoromethyl)azetidin-1-yl]ethoxy}phenyl)-8-(trifluoromethyl)-5H-[1]benzopyrano[4,3-c]quinolin-2-ol, Isomer 2]
Oc1ccc2c3c(cnc2c1)-c1ccc(C(F)(F)F)cc1OC3c1ccc(OCCN2CC(CF)C2)cc1 (single isomer, unassigned; isomer 1) [Example 1A, 5-(4-{2-[3-(Fluoromethyl)azetidin-1-yl]ethoxy}phenyl)-8-(trifluoromethyl)-5H-[1]benzopyrano[4,3-c]quinolin-2-ol, Isomer 1]
Oc1ccc2c3c(cnc2c1)-c1ccc(C(F)(F)F)cc1OC3c1ccc(OCCN2CC(CF)C2)cc1 (racemic) [Example 1, Racemic 5-(4-{2-[3-(Fluoromethyl)azetidin-1-yl]ethoxy}phenyl)-8-(trifluoromethyl)-5H-[1]benzopyrano[4,3-c]quinolin-2-ol]
